# Measurements reported in patent US6218431A, “Substituted biphenyls” (Bayer Corporation, priority 1997, dated 2001).
# Target: T1, glucagon receptor (Homo sapiens, UniProt P47871)
# T1 construct: expressed in transfected cells; host or cells: Chinese Hamster Ovary cells (CHO-HGR), membranes
# Experiment: glucagon receptor binding assay (125I-glucagon, CHO-HGR membranes)
# Conditions: 20 μM; reported where 20 μM did not reduce glucagon binding by 50%
# Procedure, shortened: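 Membranes from CHO cells expressing glucagon receptor (10 ug protein) in Tris pH 7.4 buffer with EDTA, BSA and bacitracin, incubated with test compound and 125I-glucagon (9 fmol) 60 min at room temperature. Bound radioactivity counted after filtration; nonspecific binding defined with 1 μM native glucagon; 0.5% DMSO.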
# T1 sequence (P47871 26-477): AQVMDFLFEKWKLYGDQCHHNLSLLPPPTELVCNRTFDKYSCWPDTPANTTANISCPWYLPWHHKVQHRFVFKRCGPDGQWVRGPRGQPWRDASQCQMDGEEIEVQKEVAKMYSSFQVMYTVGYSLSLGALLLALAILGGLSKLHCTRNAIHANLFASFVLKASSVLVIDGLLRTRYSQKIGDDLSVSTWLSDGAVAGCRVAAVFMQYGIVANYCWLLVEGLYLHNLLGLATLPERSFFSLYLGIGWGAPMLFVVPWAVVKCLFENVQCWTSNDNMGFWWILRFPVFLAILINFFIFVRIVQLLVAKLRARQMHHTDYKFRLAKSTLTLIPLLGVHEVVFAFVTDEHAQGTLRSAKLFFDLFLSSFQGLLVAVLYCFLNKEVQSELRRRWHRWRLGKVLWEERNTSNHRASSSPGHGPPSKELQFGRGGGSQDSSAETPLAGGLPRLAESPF
row,Structure (SMILES),inhibition at 20 µM [%]
1,CC(C)c1nc(C(C)C)c(CCCCCCCCC(=O)O)c(-c2ccc(F)cc2)c1CO [Example 91],14.2
2,CCCCCc1c(C(C)C)nc(C(C)C)c(C(O)CC)c1-c1ccc(F)cc1 (racemic) [Example 117],45.1
3,"CCCCCc1c(C(C)C)nc(C(C)C)c(C(O)CCCC)c1-c1ccc(F)cc1 (racemic) [Example 115, (±)-2,6-Diisopropyl-3-(1-hydroxypentyl)-4-(4-fluorophenyl)-5pentyl-pyridine]",21.1
4,"CC(C)c1nc(C(C)C)c(CCCC(=O)O)c(-c2ccc(F)cc2)c1CO [Example 92, 2,6-Diisopropyl-3-hydroxymethyl-4-(4-fluorophenyl)-5-(3carboxypropyl)pyridine]",11.6
5,"CCCCCc1c(C(C)C)nc(C(C)C)c(CNCC)c1-c1ccc(F)cc1 [Example 123, 2,6-Diisopropyl-3-(ethylamino)methyl-4-(4-fluorophenyl)-5-pentylpyridine]",49.2
6,"CC(C)c1nc(C(C)C)c(C(C)O)c(-c2ccc(F)cc2)c1CO (racemic) [Example 93, (±)-2,6-Diisopropyl-3-hydroxymethyl-4-(4-fluorophenyl-5-(1-hydroxy-ethyl)pyridine]",28.3
7,"CC(C)c1nc(C(C)C)c(CN2CCCC2)c(-c2ccc(F)cc2)c1CO [Example 71, 2,6-Diisopropyl-3-hydroxymethyl-4-(4-fluorophenyl)-5-(pyrrolindino-methyl)pyridine]",46.3
8,"CCCCCc1c(C(C)C)nc(C(C)C)c(CO)c1-c1ccc(C(F)(F)F)cc1 [Example 126, 2,6-Diisopropyl-3-hydroxymethyl-4-[(4-trifluoromethyl)phenyl]-5-pentylpyridine]",35.3
9,CCCC=Cc1c(CC)nc(CC)c(CO)c1-c1ccccc1 [Example 6],34.2
10,CCc1nc(CC)c(CO)c(-c2ccccc2)c1CC [Example 9],16.6

# The remaining lines, values ahead:
row,inhibition at 20 µM [%],Structure (SMILES)
1,25.4,"CCCC=Cc1c(C(C)C)nc(C(C)C)c(CO)c1-c1cccc(OCc2ccccc2)c1 [Example 152, 2,6-Diisopropyl-3-hydroxymethyl-4-(3-benzyloxyphenyl)-5-(pent-1-enyl)pyridine]"
2,34.4,"CCCCCc1c(C(C)C)nc(C(C)C)c(CO)c1-c1ccc(C(C)C)cc1 [Example 134, 2,6-Diisopropyl-3-hydroxymethyl-4-(4-isopropylphenyl)-5-pentylpyridine]"
3,44.6,"C=CC(O)c1nc(C(C)C)c(CO)c(-c2ccc(F)cc2)c1CCCCC (stereo not shown) [Example 206, 2-(1-Hydroxyprop-2-enyl)-3-pentyl-4-(4-fluorophenyl)-5-hydroxymethyl-6-isopropylpyridine]"
4,45.5,"CCCC=Cc1c(C(C)C)nc(C(C)C)c(CO)c1-c1cccc(F)c1 [Example 127, 2,6-Diisopropyl-3-hydroxymethyl-4-(3-fluorophenyl)-5-(pent-1-enyl)-pyridine]"
5,33.4,"CCCC=Cc1c(C(C)C)nc(C(C)C)c(CO)c1-c1ccc(SC)cc1 [Example 174, 2,6-Diisopropyl-3hydroxymethyl-4-[4-(methylthio)phenyl]-5-(pent-1-enyl)pyridine]"
6,7.78,"CCCCCc1c(C(C)C)nc(C(C)C)c(CO)c1-c1ccc(Cl)cc1Cl [Example 148, 2,6-Diisopropyl-3-hydroxymethyl-4-(2,4-dichlorophenyl)-5-pentylpyridine]"
7,45.5,"CCCC=Cc1c(C(C)C)nc(C(C)C)c(CO)c1-c1cccc(OC)c1 [Example 170, 2,6-Diisopropyl-3-hydroxymethyl-4-(3-methoxyphenyl)-5-(pent-1-enyl)pyridine]"
8,13.9,"CCCC=Cc1c(C(C)C)nc(C(C)C)c(CO)c1-c1ccccc1OCc1ccccc1 [Example 162, 2,6-Diisopropyl-3-hydroxymethyl-4-(2-benzyloxyphenyl)-5-(pent-1-enyl)pyridine]"
9,48.8,"CCCCCc1c(C(C)C)nc(C(C)C)c(CO)c1-c1cccc(Cl)c1 [Example 146, 2,6-Diisopropyl-3-hydroxymethyl-4-(3-chlorophenyl)-5-pentylpyridine]"

# Same assay, conditions: 125I-glucagon; 60 min at room temperature; read-out: IC50
row,Structure (SMILES),IC50 [nM]
1,"Cc1cccc(/C=C/c2c(C(C)C)nc(C(C)C)c(CO)c2-c2ccc(F)cc2)c1 [Example 41, 2,6-Diisopropyl-3-hydroxvmethyl-4-(4fluorophenyl)-5-[2(E)-(3-methyl-phenyl)ethenyl]pyridine]",600
2,"CCCCCc1c(C(C)C)nc(C(C)C)c(C(C)O)c1-c1ccc(F)cc1 (single isomer, unassigned) [Example 107, 2,6-Diisopropyl-3-(1-hydroxyethyl-4-fluorophenyl)-5-pentylpyridine]",3000
3,"CCCSCc1c(C(C)C)nc(C(C)C)c(CO)c1-c1ccc(F)cc1 [Example 66, 2,6-Diisopropyl-3-hydroxymethyl4-(4-fluorophenyl)-5-(propylthio)-methylpyridine]",1000
4,"CSCc1c(C(C)C)nc(C(C)C)c(CO)c1-c1ccc(F)cc1 [Example 67, 2,6-Diisopropyl-3-hydroxymethyl-4-(4-fluorophenyl)-5-(methylthio)-methylpyridine]",1100
5,CC(C)c1nc(C(C)C)c(CSCc2ccccc2)c(-c2ccc(F)cc2)c1CO [Example 64],1100
6,CCCc1c(C(C)C)nc(C(C)C)c(CO)c1-c1ccccc1 [Example 17],600
7,CCCCCc1c(C(C)C)nc(C(C)C)c(CO)c1-c1ccc(F)cc1 [Example 1],600
8,CCC=Cc1c(C(C)C)nc(C(C)C)c(CO)c1-c1ccccc1 [Example 13],3000
9,"CC(C)c1nc(C(C)C)c(CCc2ccccc2)c(-c2ccc(F)cc2)c1CO [Example 37, 2,6-Diisopropyl-3-hydroxymethyl-4-(4-fluorophenyl)-5-(2-phenylethyl)pyridine]",750
10,"Cc1ccc(/C=C/c2c(C(C)C)nc(C(C)C)c(CO)c2-c2ccc(F)cc2)cc1 [Example 42, 2,6-Diisopropyl-3-hydroxymethyl-4-(4-fluorophenyl)-5-[2(E)-(4-methyl-phenyl)ethenyl]pyridine]",700
11,"COc1ccc(SCc2c(C(C)C)nc(C(C)C)c(CO)c2-c2ccc(F)cc2)cc1 [Example 56, 2,6-Diisopropyl-3-hydroxymethyl-4-(4-fluorophenyl)-5-[(4-methoxy-phenyl)thio]methylpyridine]",1900
12,"CCCCCCc1c(C(C)C)nc(C(C)C)c(CO)c1-c1ccccc1 [Example 16, 2,6Diisopropyl-3-hydroxymethyl-4-phenyl-5-hexylpyridine]",850
13,"C=CCc1c(C(C)C)nc(C(C)C)c(CO)c1-c1ccc(F)cc1 [Example 87, 2,6-Diisopropyl-3-hydroxymethyl-4-(4fluorophenyl)-5-(2-propenyl)-pyridine]",1900
14,"CC(C)c1nc(C(C)C)c(CSc2ccc([N+](=O)[O-])cc2)c(-c2ccc(F)cc2)c1CO [Example 68, 2,6-Diisopropyl-3-hydroxymethyl-4-(4-fluorophenyl)-5-[(4-nitrophenyl)-thio]methylpyridine]",13000
15,"CC(C)c1nc(C(C)C)c(CSc2cccc(C(F)(F)F)c2)c(-c2ccc(F)cc2)c1CO [Example 48, 2,6-Diisopropyl-3-hydroxymethyl-4-(4-fluorophenyl)-5-[((3-trifluoro-methyl)phenyl)thio]methylpyridine]",1800
16,"CC(C)c1nc(C(C)C)c(CSc2ccccc2)c(-c2ccc(F)cc2)c1CO [Example 47, 2,6Diisopropyl-3-hydroxymethyl-4-(4fluorophenyl)-5[(phenylthio)-methyl]pyridine]",1500

# The remaining lines, values ahead:
row,IC50 [nM],Structure (SMILES)
1,2000,CC(C)c1cc(C(C)C)c(CSc2c(F)c(F)cc(F)c2F)c(-c2ccc(F)cc2)c1CO [Example 288]
2,8000,"CCCCCc1c(C(C)OCC)nc(C(C)C)c(CO)c1-c1ccc(F)cc1 (stereo not shown) [Example 217, 2-(1-Ethoxyethyl)-3-pentyl-4-(4-fluorophenyl)-5-hydroxymethyl-6-isopropylpyridine]"
3,80,"CCCc1c(C(C)C)nc(C(C)C)c(CO)c1-c1ccc(F)cc1O (racemic) [Example 239-rac, 2,6-Diisopropyl-3-(1-hydroxymethyl)-4-(4-fluoro-2-hydroxyphenyl)-5-propylpyridine]"
4,20000,"CCCCCc1c(C(C)C)nc(C(C)C)c(CO)c1-c1cccnc1 [Example 186, 2,6-Diisopropyl-3-hydroxymethyl-4-(pyridin-3-yl)-5-pentylpyridine]"
5,1800,"CCCC=Cc1c(C(C)C)nc(C(C)C)c(CO)c1-c1ccc(F)c(F)c1 [Example 158, 2,6-diisopropyl-3-hydroxymethyl-4-(3,4-difluorophenyl)-5-(pent-1-enyl)pyridine]"
6,14000,"CCCCCc1c(C(O)CC)nc(C(C)C)c(CO)c1-c1ccc(F)cc1 (stereo not shown) [Example 212, 2-(1-Hydroxypropyl)-3-pentyl-4-(4-fluorophenyl)-5-hydroxymethyl-6-isopropylpyridine]"
7,2500,"CCCc1c(C(C)C)nc(C(C)C)c(CO)c1-c1ccc(F)cc1O (single isomer, unassigned) [Example 239-E1, 2,6-Diisopropyl-3-(1-hydroxymethyl)-4-(4-fluoro-2-hydroxyphenyl)-5-propylpyridine]"
8,6,"CCCCCc1c(C(C)C)cc(C(C)C)c(C(C)O)c1-c1ccc(F)cc1O (stereo not shown) [Example 247, 3,5-Diisopropyl-2-(1-hydroxyethyl)-6-pentyl-4'-fluoro-2'-hydroxy-1,1'-biphenyl]"
9,900,"CCCC=Cc1c(C(C)C)nc(C(C)C)c(CO)c1-c1ccc(Cl)cc1 [Example 143, 2,6-Diisopropyl-3-hydroxymethyl-4-(4-chlorophenyl)-5-(pent-1-enyl)pyridine]"
10,11,"CCc1c(C(C)C)cc(C(C)C)c(C(C)O)c1-c1ccc(F)cc1O (stereo not shown) [Example 246, 3,5-Diisopropyl-2-(1-hydroxyethyl)-6-ethyl-4'-fluoro-2'-hydroxy-1,1'-biphenyl]"
11,300,"CCCCCc1c(C(C)C)cc(C(C)C)c(CO)c1-c1ccc(F)cc1 [Example 190, 3,5-Diisopropyl-2-hydroxymethyl-6-pentyl-4'-fluoro-1,1'-biphenyl]"
